# Experimental data as given in the SangsterLogP compilation.
# Assay: method code SF-FL/RC, from DOI: 10.1007/bf00499868, PMID: 43479
# Conditions: not given
row,Compound,logP
1,CNCC(O)c1ccc(O)c(OC)c1 (stereo unspecified),-0.64
2,NCC(O)c1ccc(O)cc1 (stereo unspecified),-0.75
3,COc1cc(CCN)ccc1O,-0.08
4,C[C@H](N)[C@H](O)c1cccc(O)c1,-0.27
5,CNC[C@H](O)c1ccc(O)c(O)c1,-1.37
6,CC(N)C(O)c1ccc(O)c(O)c1 (stereo unspecified),-1.43
7,CNCC(O)c1ccc(O)cc1 (stereo unspecified),-0.45
8,COc1cc(C(O)CN)ccc1O (stereo unspecified),-1.05

# Same assay, conditions: pH 7.4
row,Compound,logD
1,OCC(O)c1ccc(O)c(O)c1 (stereo unspecified),-1.01
2,COc1cc(C(O)CO)ccc1O (stereo unspecified),-0.58
3,COc1cc(CCO)ccc1O,0.47
